Test results: US7375096B1, “Method of preparing a supramolecular complex containing a therapeutic agent and a multi-dimensional polymer network” (California Institute of Technology, priority 1998, dated 2008)

What was measured:
DNA = test: Pentalysine DNA binding with crosslinker DTBP and reducing agent TCEP (agarose gel)
Procedure: Pentalysine was added to DNA for 15 minutes. Crosslinker DTBP was then added to the solution mixture for over 60 minutes. TCEP was added and an agarose gel was run after 30 minutes. […] Thus, crosslinking with DTBP increased the affinity of pentalysine to DNA.

Procedure for BHK-21 cells: BHK-21 cells were plated in 24 well plates at a cell density of 60,000 cells/well 24 hours before transfection. […] Media solution containing the DNA/polymer complexes was added to cultured cells and replaced with fresh media after 24 hours of incubation at 37° C. The cells were lysed 48 hours after transfection. […] Cell lysate was also used to determine cell viability by the Lowry protein assay.

| Substance | binding to DNA (DNA) | toxicity (cell viability, Lowry protein assay) (BHK-21 cells) |
| --- | --- | --- |
| Pentalysine | not strong enough to bind to the DNA |  |
| β-Cyclodextrin(cystamine)-DMS copolymer [copolymer 15] |  | No toxicity was observed |
